Test results taken from BigSolDB 2.1.

CC1(C)C2CCC1(CS(=O)(=O)O)C(=O)C2 (stereo not drawn)
solubility (mole fraction)
Details | in acetyl acetate | in methyl acetate
305.7 K | 0.099 | 0.0236
310.6 K | 0.122 | 0.0278
313.7 K | – | 0.0316
315.1 K | 0.134 | 0.0339
317.4 K | 0.15 | –
320.1 K | – | 0.0409
321.4 K | 0.161 | 0.039
324.9 K | 0.173 | 0.0459
328.9 K | 0.179 | –
329.1 K | – | 0.0546
331.7 K | 0.181 | –
334.6 K | – | 0.0726
339.1 K | – | 0.0906
